In patent publication US6087355A, “Cephalosporin antibiotics” (Microcide Pharmaceuticals, Inc., priority 1996, dated 2000) one finds MIC, responders and ED50 data, which are given here for 1 molecule.

SMILES strings stand for the structures. Converted amounts (≈) assume the structure as drawn.

The subject of one assay is E. faecium A491(Amp^R). In words: In vitro MIC, agar dilution. It is filed as cell-based. The conditions noted are these: Enterococcus faecium, read-out: minimum inhibitory concentration (MIC). The procedure, abridged:
(§1)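 Strains were spotted at roughly 10^4 cfu onto drug-containing Mueller-Hinton agar. MIC was read as the lowest inhibitory concentration after overnight incubation at 35-36 °C.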

Assay [1] concerns S. aureus ATCC 13709(Meth^S). In words: In vitro MIC, agar dilution. The conditions noted are these: Staphylococcus aureus, ATCC13709, S. aureus ATCC 13709(Meth^S); read-out: minimum inhibitory concentration (MIC). The format is cell-based. The procedure, abridged:
as §1

In assay [2] the test system is S. aureus PC1(Meth^S)(lac^+). In words: In vitro MIC, agar dilution. The format is cell-based. Particulars: Staphylococcus aureus, read-out: minimum inhibitory concentration (MIC). Put shortly: as §1
A further assay relates to E. faecium VanA(Van^R). In words: In vitro MIC, agar dilution. The format is cell-based. The conditions noted are these: Enterococcus faecium, read-out: minimum inhibitory concentration (MIC). The procedure, abridged:
as §1

A further assay has as its system E. faecalis VanB(Van^R). The assay is described as follows: In vitro MIC, agar dilution. It is filed as cell-based. Particulars: Enterococcus faecalis, read-out: minimum inhibitory concentration (MIC). Put shortly:
as §1

Assay [3] has as its system S. haemolyticus 05(Meth^R). The assay is described as follows: In vitro MIC, agar dilution. It is filed as cell-based. The conditions noted are these: Staphylococcus haemolyticus, read-out: minimum inhibitory concentration (MIC). The procedure, abridged: as §1
The subject of another assay is E. coli ATCC 25992. The assay is described as follows: In vitro MIC, agar dilution. Particulars: Escherichia coli, ATCC25992, read-out: minimum inhibitory concentration (MIC). It is filed as cell-based. The procedure, abridged:
as §1

Assay [4] relates to S. aureus Col8A(Meth^S)(lac^-). The assay is described as follows: In vitro MIC, agar dilution. It is filed as cell-based. The conditions noted are these: Staphylococcus aureus; S. aureus Col8A(Meth^S)(lac^-); read-out: minimum inhibitory concentration (MIC). The procedure, abridged:
(§2)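 Two-fold dilutions (128 to ≤0.25 μg/mL, in duplicate) were poured into Mueller-Hinton agar. Log-phase broth cultures were spot-inoculated at about 10^4 cfu per spot and incubated 35-36°C for 16-20 hours; the MIC was the lowest concentration inhibiting growth. Col is a high-level PBP2a producer; Col 8A is its isogenic PBP2a-lacking partner.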

Assay [5] relates to S. aureus Col(Meth^R)(lac^-). In words: In vitro MIC, agar dilution. It is filed as cell-based. The conditions noted are these: Staphylococcus aureus, read-out: minimum inhibitory concentration (MIC). The procedure, abridged: as §2
Assay [6] concerns S. aureus strain ATCC 13709 (methicillin-susceptible). In words: Murine model for lethal bacteremic peritonitis. The format is in vivo, female Swiss-Webster mice. The conditions noted are these: Staphylococcus aureus, ATCC13709, SC, 72 h. Put shortly:
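Female Swiss-Webster mice were challenged IP with an LD100 inoculum in 7% hog gastric mucin, then given test drug subcutaneously in twofold increments (0.01–512 mg/kg) as two equal doses at challenge and 2 h later, 10 mice per group. Survival was scored at 72 h; PD50 (total mg/kg) was derived by probit.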

With `C[C@@H](O)[C@H]1C(=O)N2C(C(=O)O)=C(SCCN=CN)C[C@H]12` [Imipenem, imipenem, reference compound], the MIC was above 128 µg/mL with E. faecium A491(Amp^R); at most 0.25 µg/mL in assay [1]; at most 0.25 µg/mL in assay [2]; 4 µg/mL (≈ 13.4 µM) in the assay with E. faecium VanA(Van^R); 0.5 µg/mL (≈ 1.67 µM) with E. faecalis VanB(Van^R); 64 µg/mL (≈ 214 µM) in [3]. Further, the MIC in the assay with E. coli ATCC 25992 is at most 0.25 µg/mL; in assay [4], at most 0.25 µg/mL; in assay [5], 32 µg/mL (≈ 107 µM). For the same molecule, the responders at 0.039 mg/kg in assay [6] (Dose 0.039 mg/kg, read-out: Survivors) is 30%. For the same molecule, the responders at 0.078 mg/kg in assay [6] (Dose 0.078 mg/kg, read-out: Survivors) was 60%. For the same molecule, in [6] (Dose 0.156 mg/kg, read-out: Survivors), the responders at 0.156 mg/kg worked out at 100%. Further, the responders at 0.3125 mg/kg in assay [6] (Dose 0.3125 mg/kg, read-out: Survivors) worked out at 100%. Also, the responders at 0.625 mg/kg in assay [6] (Dose 0.625 mg/kg, read-out: Survivors) worked out at 100%. In assay [6] (two equal doses, IP challenge, read-out: ED50), the median effective dose (ED50) was 0.06 mg/kg.
